The species named for one assay is Rattus norvegicus. Nature of the assay: tissue or blood.
In assay [1] the target is Glutamate receptor ionotropic, AMPA (Rattus norvegicus, UniProt P19490+P19491+P19492+P19493).
Description: In vitro binding affinity for Ionotropic glutamate receptor AMPA site was determined using [3H]AMPA as radioligand in rat cortex
For a further assay, the system named is Mus musculus. Nature of the assay: In vivo convulsant potency after subcutaneous administration in mice. The class given is functional. The following applies: sc.

Description for Rattus norvegicus: Effective concentration evaluated in electrophysiological rat cortical slice model

One may read the EC50 as the midpoint of the concentration-response curve. Higher therefore signals a less potent agent. In the assay listed under Rattus norvegicus, `CC(C)(C)c1onc(O)c1CC(N)C(=O)O` (configuration not stated) came in with an EC50 of 34 µM. This lies in the double-digit micromolar range.

By IC50 is commonly meant the concentration needed to halve the response being measured. High values mean weaker potency, low ones greater potency. The compound `CC(C)(C)c1snc(O)c1CC(N)C(=O)O` (configuration not stated) had an EC50 in the assay listed under Rattus norvegicus of 14 µM. The compound further registered an IC50 in assay [1] of 0.63 µM.

Turning to `NC(Cc1snc(O)c1Br)C(=O)O` (configuration not stated), the EC50 in the assay listed under Rattus norvegicus turned out to be 500 µM. 17 µM corresponded to half-maximal inhibition in assay [1] (IC50).

Turning to `NC(Cc1cc(O)ns1)C(=O)O` (configuration not stated), the EC50 in the assay listed under Rattus norvegicus came to 370 µM. Also, inhibition in assay [1] was half-maximal at 5.8 µM (IC50).

What is called ED50 is the midpoint of the dose-response relation. The low end stands for greater potency, the high end for weaker potency. Regarding `Cc1snc(O)c1CC(N)C(=O)O` (configuration not stated), in the assay listed under Rattus norvegicus, a half-maximal response (EC50) required 15 µM. For the same compound, in the assay on Mus musculus, the ED50 was determined as 130 µmol/kg. The compound further returned an IC50 in assay [1] of 1.8 µM.

Compound `NC(Cc1cc(O)no1)C(=O)O` (configuration not stated) gave an EC50 in the assay filed under Rattus norvegicus of 370 µM. The compound further returned an IC50 in assay [1] of 1.5 µM.

The values are drawn from ChEMBL document CHEMBL1129941, “AMPA receptor agonists: synthesis, protolytic properties, and pharmacology of 3-isothiazolol bioisosteres of glutamic acid” (J Med Chem, 1997).
